Series [1] in a line: Pharmacokinetic analysis in STZ-induced diabetes mellitus Wistar rats, single subcutaneous dose, serum ELISA. Format: in vivo. As to conditions: male, rat, sc, STZ diabetic Wistar rats, single dose 5 mg/kg subcutaneous. On the procedure: Streptozotocin (STZ), preferentially toxic to pancreatic beta cells, is commonly used to model […] diabetes mellitus (DM) in numerous species, including Wistar rat. 12-14 week-old male Wistar rats (300-380 g body weight) were selected for the study. Rats were randomly distributed to different groups based on ad-lib fed blood glucose and body weight. The diabetes mellitus (DM) was induced in Wister rats by single intraperitoneal injection of streptozotocin at 60 mg/kg STZ (n=6) in both control and test group for two weeks.
Basal glucose levels were recorded for all the animals before injecting STZ. All animals were again evaluated for the elevated blood levels after 15 days of STZ treatment. After the confirmation of high glucose levels animals were treated with single dose (5 mg/kg) of Liraglutide and D-Liraglutide by subcutaneous route.
Blood samples were collected at 0 (Pre-dose), 1, 2, 4, 8, 12, 24, 48, 72, 96, 120 and 144 h, post dose. At each time point, approximately, 0.3 mL of blood was withdrawn through retro orbital plexus under light isoflurane anesthesia in a labeled microfuge tube. All blood samples were centrifuged at 7000 rpm for 5 min at set temperature of 4° C. […]
The ELISA was performed for the quantitative measurement of the Liraglutide in the serum samples using Cloud-Clone Corp. (CEV769Ge 96 Tests) kit. […]
(In general: An ELISA detects its analyte on a solid surface through an enzyme-linked reagent.)

The conditions of series [2]: once-weekly subcutaneous injection, dose of 0.5 or 1 mg; cited from earlier work.

Usually MRT stands for a mean duration of stay, worked out from the concentration-time curve. By half-life is commonly meant the time in which the quantity being followed falls by half.

As for `CCCCCCCCCCCCCCCC(=O)N[C@@H](CCC(=O)NCCCC[C@H](NC(=O)[C@H](C)NC(=O)[C@H](C)NC(=O)[C@H](CCC(N)=O)NC(=O)CNC(=O)[C@H](CCC(=O)O)NC(=O)[C@H](CC(C)C)NC(=O)[C@H](Cc1ccc(O)cc1)NC(=O)[C@H](CO)NC(=O)[C@H](CO)NC(=O)[C@@H](NC(=O)[C@H](CC(=O)O)NC(=O)[C@H](CO)NC(=O)[C@@H](NC(=O)[C@H](Cc1ccccc1)NC(=O)[C@@H](NC(=O)CNC(=O)[C@H](CCC(=O)O)NC(=O)[C@H](C)NC(=O)[C@@H](N)Cc1cnc[nH]1)[C@@H](C)O)[C@@H](C)O)C(C)C)C(=O)N[C@@H](CCC(=O)O)C(=O)N[C@@H](Cc1ccccc1)C(=O)N[C@H](C(=O)N[C@@H](C)C(=O)N[C@@H](Cc1c[nH]c2ccccc12)C(=O)N[C@@H](CC(C)C)C(=O)N[C@H](C(=O)N[C@@H](CCCNC(=N)N)C(=O)NCC(=O)N[C@@H](CCCNC(=N)N)C(=O)NCC(=O)O)C(C)C)[C@@H](C)CC)C(=O)O` [Liraglutide], the MRT in series [1] was 34.8 h. semaglutide: in series [2], the half-life is 170 h and the “time to reach steady state” value is 4-5 weeks.
